This passage reports inhibition results from patent EP0951284B1, “[…] DERIVATIVES” (priority 1996, dated 1998).

For one assay, the target named is T1, MAO-A (Rattus norvegicus, UniProt P21396).
T1 sequence (P21396 1-526): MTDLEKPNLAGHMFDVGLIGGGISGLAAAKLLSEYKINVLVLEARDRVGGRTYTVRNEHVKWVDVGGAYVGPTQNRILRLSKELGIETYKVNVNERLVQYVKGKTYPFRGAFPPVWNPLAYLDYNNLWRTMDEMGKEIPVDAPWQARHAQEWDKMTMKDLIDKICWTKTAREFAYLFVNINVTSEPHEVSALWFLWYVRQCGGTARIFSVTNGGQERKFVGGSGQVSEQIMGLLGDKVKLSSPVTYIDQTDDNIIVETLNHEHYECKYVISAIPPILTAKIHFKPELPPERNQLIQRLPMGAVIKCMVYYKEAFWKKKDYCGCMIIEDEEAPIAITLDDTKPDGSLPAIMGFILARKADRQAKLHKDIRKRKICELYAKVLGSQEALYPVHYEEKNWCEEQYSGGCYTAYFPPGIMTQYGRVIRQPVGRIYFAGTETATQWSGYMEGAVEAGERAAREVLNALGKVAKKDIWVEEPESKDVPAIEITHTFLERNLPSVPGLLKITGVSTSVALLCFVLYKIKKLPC
In words: Inhibition of MAO activity following sub-acute (14 days) administration to rats, MAO-A. Details: from tissue; host or cells: brain, liver and intestine of Sprague Dawley rats. The class given is in vivo. As to conditions: 20mg/kg daily for 14 days. The protocol: (§1) Male Sabra mice, weighing 45-50g were injected with test compound solutions (prepared in 0.9% saline). Each dose was administered to two or three mice. The mice were sacrificed two hours after drug administration or at a time corresponding to the peak AChE inhibition time (see Table 6). The brain and liver were rapidly dissected and stored in appropriate vials on ice. The tissues were weighed, diluted to 1/20 in sucrose 0.3M and stored at -20°C before performance of the MAO assay described above. The results given in Table 6 relate to measurements made on brain tissue only.
(§2) Experiments were done with Spague Dawley male rats. Procedures were repeated as described in Examples 2.1 and 2.2, but drug administration was continued daily for 14 days. At the end of this period animals were sacrificed and MAO levels determined in the brain, liver and intestines. Compound 17 was administered sub-cutaneously or per os at a dose of 20mg/kg.

A further assay concerns the target T2, MAO-B (Rattus norvegicus, UniProt P19643).
T2 sequence (P19643 1-520): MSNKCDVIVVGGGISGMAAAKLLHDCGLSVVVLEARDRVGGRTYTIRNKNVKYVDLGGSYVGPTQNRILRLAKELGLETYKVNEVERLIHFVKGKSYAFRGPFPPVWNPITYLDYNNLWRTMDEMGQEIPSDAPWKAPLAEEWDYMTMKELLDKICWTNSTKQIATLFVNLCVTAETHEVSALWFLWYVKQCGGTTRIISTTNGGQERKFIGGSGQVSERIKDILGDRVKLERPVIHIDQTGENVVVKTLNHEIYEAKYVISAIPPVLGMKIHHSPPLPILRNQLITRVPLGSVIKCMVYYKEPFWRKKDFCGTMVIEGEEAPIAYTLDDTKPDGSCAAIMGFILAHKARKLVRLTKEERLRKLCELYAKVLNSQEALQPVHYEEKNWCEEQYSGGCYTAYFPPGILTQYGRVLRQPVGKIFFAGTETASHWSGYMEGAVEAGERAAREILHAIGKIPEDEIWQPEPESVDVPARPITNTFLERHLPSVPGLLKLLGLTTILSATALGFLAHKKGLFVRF
The experiment in a line: Inhibition of MAO activity following sub-acute (14 days) administration to rats, MAO-B. The class given is in vivo. More on the design: from tissue; host or cells: brain, liver and intestine of Sprague Dawley rats. As to conditions: 20mg/kg daily for 14 days. As for the experimental part:
as §1, §2

Counter-ions that a name gives are not always drawn.

For orientation: inhibition means the relative decrease from the control value, in per cent. Consider `C#CCNC(C)Cc1cccc(OC(=O)N(C)CC)c1` (stereo not drawn) [Compound 17, 3-(N-Me,N-Etcarbamyloxy)α-methyl, N-propargyl phenethylamine.HCl], for which the inhibition at 20 mg/kg on MAO-A (po, Brain) turned out to be 59%; at MAO-A (po, Intestine), 25%; against MAO-A (po, Liver), 59%; at MAO-A (sc, Brain), 76%; at MAO-A (sc, Intestine), 10%; against MAO-A (sc, Liver) it was 33%. For the same compound, the inhibition at 20 mg/kg at MAO-B (po, Brain) stood at 72%; on MAO-B (po, Intestine), 40%; against MAO-B (po, Liver) it was 74%; against MAO-B (sc, Brain), 87%; at MAO-B (sc, Intestine), 33%; against MAO-B (sc, Liver), 51%.
